In patent US20250000882A1, “LYSOPHOSPHATIDYLCHOLINE COMBINATIONS AS A THERAPY TO TREAT CARDIAC ARREST” (THE FEINSTEIN INSTITUTES FOR MEDICAL RESEARCH, priority 2021, published 2025):

Tests used:
neuronal cells = conditions: rats supplemented with LPC; cited from earlier work
[1] = system: rats after 10 minutes of asphyxia-induced cardiac arrest; assay: Rat survival and neurologic function (mNDS) after 10-minute asphyxia-induced cardiac arrest with LPC supplementation; type: in vivo; conditions: for rat survival for 72 hr after resuscitation (Kaplan-Meier) / modified neurologic deficit score (mNDS) at 24 hours / modified neurologic deficit score (mNDS) at 72 hours: 10-minute cardiac arrest; for rat survival for 72 hr after resuscitation (Kaplan-Meier): 6 mg/kg LPC via femoral vein 1 minute after ROSC, vs vehicle; for modified neurologic deficit score (mNDS) at 24 hours / modified neurologic deficit score (mNDS) at 72 hours: surviving rats, 6 mg/kg, 100% = perfect score
Experimental: (§1) The study was conducted using adult male Sprague-Dawley rats (400-500 g, Charles River Laboratories, Wilmington, MA) utilizing procedures for asphyxia-induced cardiac arrest and cardiopulmonary resuscitation (CPR). Briefly, asphyxial cardiac arrest was induced by stopping ventilation after injecting vecuronium bromide (2 mg/kg). After 10 or 14 minutes of asphyxia-cardiac arrest, ventilation was restarted with chest compressions. Typically, rats achieve ROSC within 1 minute after the initiation of CPR. Rats were extubated 2 hours after ROSC. Blood samples were collected from the femoral artery at baseline and multiple time points during cardiac arrest or postresuscitation. Plasma was separated using centrifugation at 1,000×g for 10 minute and stored at −80° C. Brain tissue was harvested from animals that survived for 72 hours after perfusion with saline and fixed with 4% paraformaldehyde.
To test the beneficial effect of LPC supplementation, LPC (18:1) was first administered because it was the only commercially available species out of the four LPC species decreased after 10 minute of cardiac arrest. The study was then extended to test the effect of attached fatty acid by including custom-made LPC (22:6) and LPC (18:0). Different groups of control rats for each set of experiment for accurate assessment were used. Rats were randomized into each group (n=12). Baseline characteristics of rats were not different between the groups in each set of experiment.
The LPC species mixed with 0.5% bovine serum albumin (BSA) in phosphate-buffered saline (0.5 mL) was injected over 1 minute via the femoral vein cannula beginning 1 minute after ROSC, with vehicle group injected with only BSA. 6 mg/kg of LPC was injected, because this dosage preserved LPC level in post-resuscitation plasma for 2 hours after 10-minute cardiac arrest. The purities of the injected LPC species were over 98%.
Survival was followed for 72 hours with brain function evaluated in a blinded manner using the modified neurologic deficit score (mNDS) after resuscitation for surviving rats. The mNDS is expressed as percentage, with 100% representing perfect score.
Kaplan-Meier curves compared survival between the LPC and vehicle groups using the Wilcoxon test. For phospholipids levels, Mann-Whitney U test was used to compare two independent groups. Repeated measures analysis of variance was used to compare the vital signs between two groups. Spearman correlation coefficients were calculated to evaluate the correlation between blood pH and plasma LPC levels. For changes in plasma LPC levels postreperfusion, we performed Jonckheere-Terpstra test. Statistical analyses were performed using the JMP software (Version 14.2, SAS Institute, Cary, NC). p values of less than 0.05 were considered statistically significant. Data were expressed as the mean±se of the mean.

[2] = system: neurons in hippocampal CA1 region and cortex; assay: Brain histology (Nissl and Fluoro-Jade B staining) at 72 hours post-resuscitation; type: in vivo, rat; conditions: for number of neurons in the hippocampus (Nissl staining), % of control values: 10-minute cardiac arrest; for degenerating cells in the cortex (FJB staining), fold increase compared with control value: vehicle seven-fold
Experimental: as §1
Plasma phospholipids were analyzed using plasma samples obtained from humans and rats following our established high-performance liquid chromatography-mass spectrometry (HPLC-MS) method. For brain histology, serial coronal sections (14 μm) were prepared from the fixed brain tissue using a cryostat (CM1900, Leica, Germany). The sections were used for Nissl staining to determine the number of surviving neurons in hippocampal CA1 region or Fluoro-Jade B (FJB) staining to count the number of degenerative neurons in the cortex.

[3] = system: rats after 12 minutes of asphyxia-induced cardiac arrest; assay: 12 minutes of asphyxia-induced cardiac arrest rat model (survival, plasma troponin I, SSEP); type: in vivo; conditions: 12 minutes of cardiac arrest
Experimental: as §1
The therapeutic effects of LPC species as well as combination of all three species was then tested using 12 minutes of cardiac arrest, which induces more severe injury than 10 minutes of cardiac arrest. […] Also compared was the plasma troponin I level to assess the effects of individual LPC species LPC (18:0), LPC (18:1), LPC (22:6) and the LPC Combination for heart function (see FIG. 8 and FIG. 9 respectively). […] Since these rats are severely injured and mNDS are not appropriate to measure their brain function, we used SSEP to compare the brain function between LPC (18:1) and LPC combination groups.

IL-10 = assay: Plasma IL-10 level, 10 minutes of asphyxia-induced cardiac arrest rat model; type: in vivo; conditions: after 10 minutes of cardiac arrest
Experimental: (§2) Using the 10 minutes of asphyxia-induced cardiac arrest rat model, supplementing LPC (18:1) decreased inflammatory IL-6′ levels and increased the anti-inflammatory IL-10 levels in rat plasma after 10 minutes of cardiac arrest (FIG. 15A and FIG. 15B).

IL-6 = assay: Plasma IL-6 level, 10 minutes of asphyxia-induced cardiac arrest rat model; type: in vivo; conditions: after 10 minutes of cardiac arrest
Experimental: as §2

lung = assay: Lung wet-to-dry weight ratio after cardiac arrest; type: in vivo, rat
Experimental: (§3) The beneficial effects of LPC (18:2), LPC(20:4), and LPC (16:0) for their beneficial effects using the same cardiac arrest model were also tested. […] Furthermore, none of the LPC (18:2) treated rats were able to walk whereas 40 to 50% of LPC (22:6) and LPC (18:1) treated rats were able to walk.

heart = assay: Heart ejection fraction at 2 h after resuscitation; type: in vivo, rat; conditions: 10 min cardiac arrest per FIG. 13 legend
Experimental: as §3

[4] = diet supplemented with LPC; cited from earlier work

Molecule | rat survival for 72 hr after resuscitation (Kaplan-Meier) [1] | plasma troponin I level [3] | modified neurologic deficit score (mNDS) at 24 hours [1] [%] | modified neurologic deficit score (mNDS) at 72 hours [1] [%] | number of neurons in the hippocampus (Nissl staining), % of control values [2] [%] | degenerating cells in the cortex (FJB staining), fold increase compared with control value [2] | other results
CCCCCCCCCCCCCC(=O)OC[C@@H](O)COP(=O)([O-])OCC[N+](C)(C)C [LPC (14:0)] |  |  |  |  |  |  | protection of neuronal cells after brain ischemia (neuronal cells): provided protecting to neuronal cells
lysophosphatidylcholine (18:0) [LPC (18:0)] | no improved outcomes | only the LPC Combination showed a decrease |  |  |  |  | effect on neuronal cellular morphology [2]: minimal effect
lysophosphatidylcholine (18:1) [LPC (18:1)] | significantly improved rat survival | only the LPC Combination showed a decrease | 66 | 76 | 86 | decreased to a three-fold increase | anti-inflammatory IL-10 levels in rat plasma (IL-10): increased; inflammatory IL-6 levels in rat plasma (IL-6): decreased; rat survival (Kaplan-Meier) [3]: most significantly improved rat survival; return of the SSEP signal (brain function) [3]: did not happen
lysophosphatidylcholine (18:2) [LPC (18:2)] |  |  |  |  |  |  | neuroprotective effect (mNDS at 48 hours and 72 hours) ([1]; 10 min cardiac arrest per FIG. 12 legend): not as good as LPC (18:1) or LPC (22:6); rat survival (Kaplan-Meier) ([1]; "same cardiac arrest model", 10 min cardiac arrest per FIG. 11 legend): significantly improve survival; treated rats able to walk ([1]; after cardiac arrest): none; lung wet-to-dry ratio (lung): Reduced; heart ejection fraction (heart): improved
lysophosphatidylcholine (22:6) [LPC (22:6)] | improved rat survival | only the LPC Combination showed a decrease | 51 | 86 | 88 | decreased to a three-fold increase | cognitive functions [4]: improved their cognitive functions
